The values below come from patent publication US12662489B2 (Sitryx Therapeutics Limited, priority 2023, dated 2026).

Experiment [1] addresses T1, MTHFD2 recombinant human enzyme (Homo sapiens, UniProt P13995).
T1 sequence (P13995 36-350): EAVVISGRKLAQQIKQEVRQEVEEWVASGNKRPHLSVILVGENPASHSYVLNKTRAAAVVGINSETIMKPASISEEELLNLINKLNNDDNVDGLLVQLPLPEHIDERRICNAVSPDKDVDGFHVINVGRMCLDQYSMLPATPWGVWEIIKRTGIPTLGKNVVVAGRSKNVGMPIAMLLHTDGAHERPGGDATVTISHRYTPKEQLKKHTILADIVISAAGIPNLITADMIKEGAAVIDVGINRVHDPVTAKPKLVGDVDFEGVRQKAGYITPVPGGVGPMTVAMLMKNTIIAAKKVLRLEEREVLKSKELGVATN
The experiment in a line: MTHFD2 inhibition assay (NAD(P)H-Glo luminescence). As to conditions: for MTHFD1/MTHFD2 IC50 ratio: selectivity of MTHFD2 inhibition over MTHFD1, band.

Experiment [2] addresses T2, MTHFD1 recombinant human enzyme (Homo sapiens, UniProt P11586).
T2 sequence (P11586 2-291 limits assumed): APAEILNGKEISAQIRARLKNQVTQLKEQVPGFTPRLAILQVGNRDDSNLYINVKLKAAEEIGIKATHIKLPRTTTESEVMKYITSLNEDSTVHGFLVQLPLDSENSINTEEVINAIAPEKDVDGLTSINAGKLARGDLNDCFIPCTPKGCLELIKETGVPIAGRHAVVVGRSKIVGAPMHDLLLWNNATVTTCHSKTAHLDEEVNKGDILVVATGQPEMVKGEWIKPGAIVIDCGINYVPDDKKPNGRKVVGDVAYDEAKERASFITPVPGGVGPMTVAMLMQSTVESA
The experiment in a line: MTHFD1 inhibition assay (NAD(P)H-Glo luminescence). The note with it: MTHFD1 IC50, recombinant human enzyme 200 nM, NADP, band.

One may read the IC50 as the concentration needed to halve the response being measured. Take `COC[C@H]1CN(c2cc(C)c3c4c(c(=O)oc3c2C)CN(C(=O)c2ccc(C(=O)NS(=O)(=O)N3CC5CC5C3)c(OC3CC3)c2F)CC4)CCN1C` (stereo partly drawn) [Example 207, N-((3-azabicyclo[3.1.0]hexan-3-yl)sulfonyl)-2-cyclopropoxy-3-fluoro-4-(8-((R)-3-(methoxymethyl)-4-methylpiperazin-1-yl)-7,10-dimethyl-5-oxo-1,3,4,5-tetrahydro-2H-chromeno[3,4-c]pyridine-3-carbonyl)benzamide]: in experiment [1], the IC50 is 10 to 100 nM and the “MTHFD1/MTHFD2 IC50 ratio” value is reported as “F (<3)”. In addition, the IC50 in experiment [2] fell in the range of 10 to 100 nM.
Take `CCOc1c(C(=O)NS(=O)(=O)N2CC3CC3C2)ccc(C(=O)N2CCc3c(c(=O)oc4c(Cl)c(N5CCN(C)[C@@H](COC)C5)ccc34)C2)c1F` (stereo partly drawn) [Example 208, N-((3-azabicyclo[3.1.0]hexan-3-yl)sulfonyl)-4-(7-chloro-8-((R)-3-(methoxymethyl)-4-methylpiperazin-1-yl)-5-oxo-1,3,4,5-tetrahydro-2H-chromeno[3,4-c]pyridine-3-carbonyl)-2-ethoxy-3-fluorobenzamide]: in experiment [1], the IC50 is 10 to 100 nM and the “MTHFD1/MTHFD2 IC50 ratio” value was “F (<3)”. Besides, the IC50 in experiment [2] was in the range of 10 to 100 nM.
`CCOc1c(C(=O)NS(=O)(=O)N2C3CCC2CC3)ccc(C(=O)N2CCc3c(c(=O)oc4c(Cl)c(N5CCN(C)[C@@H](COC)C5)ccc34)C2)c1F` [Example 209, (R)-N-((7-azabicyclo[2.2.1]heptan-7-yl)sulfonyl)-4-(7-chloro-8-(3-(methoxymethyl)-4-methylpiperazin-1-yl)-5-oxo-1,3,4,5-tetrahydro-2H-chromeno[3,4-c]pyridine-3-carbonyl)-2-ethoxy-3-fluorobenzamide]: in experiment [1], the IC50 was in the range of 10 to 100 nM and the “MTHFD1/MTHFD2 IC50 ratio” value was “F (<3)”. Moreover, in experiment [2], the IC50 was in the range of 10 to 100 nM.
With `COC[C@H]1CN(c2cc(C)c3c4c(c(=O)oc3c2C)CN(C(=O)c2ccc(C(=O)NS(=O)(=O)N3CCCC3)c(OC3CC3)c2F)CC4)CCN1C` [Example 212, (R)-2-cyclopropoxy-3-fluoro-4-(8-(3-(methoxymethyl)-4-methylpiperazin-1-yl)-7,10-dimethyl-5-oxo-1,3,4,5-tetrahydro-2H-chromeno[3,4-c]pyridine-3-carbonyl)-N-(pyrrolidin-1-ylsulfonyl)benzamide], the IC50 lay in the range of 1 to 10 nM in experiment [1] and 10 to 100 nM in experiment [2]. Moreover, in experiment [1], the “MTHFD1/MTHFD2 IC50 ratio” value was “F (<3)”.
The matching figures for `COC[C@H]1CN(c2cc(C)c3c4c(c(=O)oc3c2C)CN(C(=O)c2ccc(C(=O)NS(=O)(=O)N3C5CCC3CC5)c(OC3CC3)c2F)CC4)CCN1C` [Example 213, (R)-N-((7-azabicyclo[2.2.1]heptan-7-yl)sulfonyl)-2-cyclopropoxy-3-fluoro-4-(8-(3-(methoxymethyl)-4-methylpiperazin-1-yl)-7,10-dimethyl-5-oxo-1,3,4,5-tetrahydro-2H-chromeno[3,4-c]pyridine-3-carbonyl)benzamide]: 1 to 10 nM, 10 to 100 nM and “G (^ 3 to 9.0)”.
For `CCOc1c(C(=O)NS(=O)(=O)N2CC3CC3C2)ccc(C(=O)N2CCc3c(c(=O)oc4c(CC)c(N5CCN(C)[C@@H](COC)C5)ccc34)C2)c1F` (stereo partly drawn) [Example 214, N-((3-azabicyclo[3.1.0]hexan-3-yl)sulfonyl)-2-ethoxy-4-(7-ethyl-8-((R)-3-(methoxymethyl)-4-methylpiperazin-1-yl)-5-oxo-1,3,4,5-tetrahydro-2H-chromeno[3,4-c]pyridine-3-carbonyl)-3-fluorobenzamide], in experiment [1], the IC50 was 10 to 100 nM and the “MTHFD1/MTHFD2 IC50 ratio” value is “F (<3)”. Besides, in experiment [2], the IC50 fell in the range of 10 to 100 nM.
For `CCOc1c(C(=O)NS(=O)(=O)N2C3CCC2CC3)ccc(C(=O)N2CCc3c(c(=O)oc4c(CC)c(N5CCN(C)[C@@H](COC)C5)ccc34)C2)c1F` [Example 215, (R)-N-((7-azabicyclo[2.2.1]heptan-7-yl)sulfonyl)-2-ethoxy-4-(7-ethyl-8-(3-(methoxymethyl)-4-methylpiperazin-1-yl)-5-oxo-1,3,4,5-tetrahydro-2H-chromeno[3,4-c]pyridine-3-carbonyl)-3-fluorobenzamide], in experiment [1], the IC50 lay in the range of 100 to 1000 nM and the “MTHFD1/MTHFD2 IC50 ratio” value was “F (<3)”. Moreover, the IC50 in experiment [2] was in the range of 10 to 100 nM.
The matching figures for `CCOc1cc(C(=O)N2CCc3c(c(=O)oc4c(C)c(N5CCN(C)[C@@H](COC)C5)cc(C)c34)C2)c(F)cc1C(=O)NS(=O)(=O)N1CC2(CCC2)C1` [Example 220, (R)-N-((2-azaspiro[3.3]heptan-2-yl)sulfonyl)-2-ethoxy-5-fluoro-4-(8-(3-(methoxymethyl)-4-methylpiperazin-1-yl)-7,10-dimethyl-5-oxo-1,3,4,5-tetrahydro-2H-chromeno[3,4-c]pyridine-3-carbonyl)benzamide]: 10 to 100 nM, “H (>9.0 to 30)” and 100 to 1000 nM.
The matching figures for `COC[C@H]1CN(c2cc(C)c3c4c(c(=O)oc3c2C)CN(C(=O)c2ccc(C(=O)NS(=O)(=O)N3CCCC3)c(OCCC(F)(F)F)c2F)CC4)CCN1C` [Example 222, (R)-3-fluoro-4-(8-(3-(methoxymethyl)-4-methylpiperazin-1-yl)-7,10-dimethyl-5-oxo-1,3,4,5-tetrahydro-2H-chromeno[3,4-c]pyridine-3-carbonyl)-N-(pyrrolidin-1-ylsulfonyl)-2-(3,3,3-trifluoropropoxy)benzamide]: 1 to 10 nM, “F (<3)” and 10 to 100 nM.
The matching figures for `CCOc1cc(C(=O)N2CCc3c(c(=O)oc4c(C)c(N5CCN(C)[C@@H](COC)C5)cc(C)c34)C2)ccc1C(=O)NS(=O)(=O)N1C2CCC1CC2` [Example 227, (R)-N-((7-azabicyclo[2.2.1]heptan-7-yl)sulfonyl)-2-ethoxy-4-(8-(3-(methoxymethyl)-4-methylpiperazin-1-yl)-7,10-dimethyl-5-oxo-1,3,4,5-tetrahydro-2H-chromeno[3,4-c]pyridine-3-carbonyl)benzamide]: 1 to 10 nM, “H (>9.0 to 30)” and 100 to 1000 nM.
Consider `CCOc1c(C(=O)NS(=O)(=O)N2CC3CC3C2)ccc(C(=O)N2CCc3c(c(=O)oc4c(C)c(N5CCN(C)[C@@H](COC)C5)cc(C)c34)C2)c1F` (stereo partly drawn) [Example 229], for which, in experiment [1], the IC50 is 10 to 100 nM and the “MTHFD1/MTHFD2 IC50 ratio” value is listed as “G (^ 3 to 9.0)”. For the same molecule, the IC50 in experiment [2] fell in the range of 10 to 100 nM.
In the case of `CCOc1c(C(=O)NS(=O)(=O)N2CC3CCC2C3)ccc(C(=O)N2CCc3c(c(=O)oc4c(C)c(N5CCN(C)[C@@H](COC)C5)ccc34)C2)c1F` (stereo partly drawn) [Example 230], in experiment [1], the IC50 is 10 to 100 nM and the “MTHFD1/MTHFD2 IC50 ratio” value is given as “F (<3)”. In addition, the IC50 in experiment [2] lay within 100 to 1000 nM.
The matching figures for `CCOc1c(C(=O)NS(=O)(=O)N(C2CC2)C2CC2)ccc(C(=O)N2CCc3c(c(=O)oc4c(C)c(N5CCN(C)[C@@H](COC)C5)cc(C)c34)C2)c1F` [Example 231]: 10 to 100 nM, “F (<3)” and 10 to 100 nM.
As to `CCOc1c(C(=O)NS(=O)(=O)N2C[C@H]3CCC[C@H]3C2)ccc(C(=O)N2CCc3c(c(=O)oc4c(C)c(N5CCN(C)[C@@H](COC)C5)cc(C)c34)C2)c1F` [Example 232], in experiment [1], the IC50 lay within 10 to 100 nM and the “MTHFD1/MTHFD2 IC50 ratio” value is “F (<3)”. Also, the IC50 in experiment [2] was in the range of 10 to 100 nM.
